Patent publication US5534498A, “Trypsin inhibitors” (Corvas International, Inc., priority 1993, dated 1996)
Residues, ends and D or L forms follow the SMILES beside them. *: point of attachment. Boc = CC(C)(C)OC(=O)*

Columns and labels:
[1] = molecular target: bovine and human pancreatic trypsin; assay: Potency: determination of inhibitor constant Ki against trypsin (S-2222 substrate, Dixon plot); type: biochemical; details: 37° C., TBS pH 7.4, 15 min preincubation, read-out: Ki For Peptide Aldehydes Against Trypsin
Procedure: The potency and specificity of the compounds of the present invention are determined by in vitro assay methods well known in the art. […] Specifically, the inhibitor constant, Ki, of the compounds can be determined by the method of Dixon, Biochem. J. 55:170 (1953). The specificity is assessed by determination of the concentration, IC50, of compound required to give 50% inhibition of the enzymatic activity of the coagulation enzymes, kallikrein, factor XIa, factor VIIa, factor Xa, thrombin; the fibrinolysis enzymes, plasmin, tissue plasminogen activator (tPA), and urokinase (UK), and the anticoagulation enzyme, protein C. Specificity is found when the concentration of compound giving 50% inhibition of trypsin is low relative to the concentration required to give like inhibition of the other enzymes.
Enzyme activity was determined using as substrate S-2222 [N-benzoyl-L-isoleucyl-L-glutamyl-glycyl-L-arginine-p-nitroanilide hydrochloride where glutamyl side chain is 50% carboxylic acid and 50% methyl ester], purchased from Kabi Diagnostica. The substrate was made up in deionized water prior to use.
A 96-well microtiter plate was prepared for use in the assay by incubating each well with 300 μL of 1% bovine serum albumin (in deionized water) for 30 minutes at 37° C., and washing three times with deionized water.
To each well was added 50 μL TBS (0.1M Tris, 0.14M NaCl, pH 7.4), 50 μL 2.5 nM trypsin and 50 μL peptide aldehyde in TBS or TBS alone. After incubating for 15 minutes at 37° C., 50 μL of S-2222 (at 37° C.) at a specified concentration was added to each well. After mixing, the rate of substramte turnover at 37° C. was measured for 30 minutes at 405 nm (generation of p-nitroaniline). The initial S-2222 concentrations in the assay mixture were 0.45, 0.23, 0.11, 0.056, and 0.028 mM.
Ki was determined graphically using a Dixon plot, as described in Dixon, Biochem. J. 55:170 (1953).

human Factor XIa = molecular target: T1, human Factor XIa (Homo sapiens, UniProt P03951); assay: Factor XIa assay (S-2366 substrate); type: biochemical
T1 construct: 50 μL of 5 nM human Factor XIa
Procedure: (§1) The specificity of the peptide aldehydes (8 through 12) was determined in vitro by measurement of their IC50 against other enzymes involved in hemostasis. A specific concentration of enzyme and its substrate were challenged with varying concentrations of inhibitor. […] Specific assay procedures used are presented below.
(§2) 96-well microtiter plates were prepared for use in these assays by incubating each well with 300 μL 1% bovine serum albumin (in deionized water) for 30 minutes at 37° C., then washing three times with deionized water.
(§3) The substrate was made up in deionized water prior to use.

human Factor Xa = molecular target: T2, human Factor Xa (Homo sapiens, UniProt P00742); assay: Factor Xa assay (Pefachrome Xa substrate); type: biochemical
T2 construct: 50 μL 30 nM human Factor Xa
Procedure: as §1, §2
Enzyme activity was determined using as substrate, Pefachrome Xa [N-methoxycarbonyl-D-cyclohexylalanyl-L-glycyl-L-arginine p-niroanilide acetate], purchased from Centerchem, Inc. The substrate was made up in deionized water prior to use.

bovine thrombin = molecular target: T3, bovine thrombin (Bos taurus, UniProt P00735); assay: Thrombin assay (S-2238 substrate); type: biochemical
T3 construct: 50 μL 20 nM bovine thrombin
Procedure: The specificity of the peptide aldehydes (8 through 12) was determined in vitro by measurement of their IC50 against other enzymes involved in hemostasis. A specific concentration of enzyme and its substrate were challenged with varying concentrations of inhibitor. IC50 is that concentration of inhibitor giving 50% inhibition of substrate turnover, under the assay conditions. Specific assay procedures used are presented below.
as §2
Enzyme activity was determined using as substrate, S-2238 [D-phenylalanyl-L-pipecolyl-L-arginine-p-nitroanilide dihydrochloride], purchased from Kabi Diagnostica. The substrate was made up in deionized water prior to use.
The assay was run by combining in appropriate wells 50 μL TBS and 50 μL inhibitor in TBS or TBS alone and 50 μL 20 nM bovine thrombin (or TBS as background control), incubating this mixture for 30 minutes at room temperature, adding 50 μL 1 mM S-2238, incubating for an additional 30 minutes at room temperature, then reading the absorbance of the wells at 405 nm on a microtiter plate reader set with background substraction at 650 nm.

[2] = molecular target: T4, Activated human Protein C (Homo sapiens, UniProt P04070); assay: Protein C assay (Pefachrome PC substrate); type: biochemical
T4 construct: from tissue
Procedure: as §1, §2
Enzyme activity was determined using as substrate, Pefachrome PC [δ-carbobenzoloxy-D-lysyl-L-prolyl-L-arginine-p-nitroanilide], purchased from Centerchem, Inc. The substrate was made up in deionized water prior to use. Protac used to activate Protein C was obtained from American Diagnostics.

[3] = test system: caerulein-induced pancreatitis in balb/c mice; assay: Animal model for pancreatitis: caerulein-induced pancreatitis, serum amylase; type: in vivo; details: caerulein 3 × 100 μg/kg IP, inhibitor 50 mg/kg IP, blood 4 hours after last inhibitor injection, saline + caerulein 64.4 ± 14.4, control 10.4 ± 1.6
Procedure: The efficacy of the compounds of the present invention as a prophylactic treatment for pancreatitis is assessed in vivo using the chemically-induced animal model of Niederau et al., Gastroenterology 88:1192-1204 (1985).
Pancreatitis was induced in fasting male balb/c mice weighing between 18 to 20 g by giving them three IP injections of caerulein, with each dose at 100 μg/kg body weight. The injections of each were given at two hour intervals over a 6 hour period. The ability of N-Boc-L-Asp-Pro-Arg-al (compound 9) to inhibit the induced pancreatitis was tested by injection into caerulein-treated mice. The inhibitor was dissolved into TBS, then injected IP into the mice. The first injection was given 1/4 hour prior to the caerulein treatment, then one hour after each caerulein injection. Inhibitor dose tested was 50 mg/kg body weight.
A blood serum sample was drawn and tested for amylase concentration. The blood sample was obtained by periorbital bleeding into heparized tubes 4 hours after the last injection of inhibitor. After centrifuging to remove the blood cells, the serum was the diluted 1:10 in TBS and assayed with Sigma Diagnostics Amylase reagent. The kinetic change in absorbance was measured at 405 nm for 1 minute, then was convereted into U/ml amylase activity.

plasmin = plasmin (Homo sapiens, UniProt P00747); assay: Plasmin assay (S-2251 substrate); type: biochemical; design: 50 μL 25 nM human plasmin
Procedure: as §1, §2, §3

[4] = 30 min preincubation, room temperature, tested 0.025-25 μM, Inact. = no inhibition at highest concentration
[5] = [IC50 for Trypsin/IC50 for other enzyme]×100, lower = more trypsin selective

T2 sequence (P00742 235-488 limits assumed): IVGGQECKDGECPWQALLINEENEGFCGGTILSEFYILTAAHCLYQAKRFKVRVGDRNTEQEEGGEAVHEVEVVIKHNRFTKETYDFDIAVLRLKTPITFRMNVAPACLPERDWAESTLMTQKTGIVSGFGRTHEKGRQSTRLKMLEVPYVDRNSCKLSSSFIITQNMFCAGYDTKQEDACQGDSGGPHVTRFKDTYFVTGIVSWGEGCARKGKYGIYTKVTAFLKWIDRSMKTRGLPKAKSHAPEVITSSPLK
T2 sequence (P00742 41-179 partner limits assumed): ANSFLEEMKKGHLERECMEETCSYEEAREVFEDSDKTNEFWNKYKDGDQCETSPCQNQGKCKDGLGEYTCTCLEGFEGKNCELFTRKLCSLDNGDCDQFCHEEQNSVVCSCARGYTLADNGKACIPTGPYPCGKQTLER
T1 sequence (P03951 388-625 limits assumed): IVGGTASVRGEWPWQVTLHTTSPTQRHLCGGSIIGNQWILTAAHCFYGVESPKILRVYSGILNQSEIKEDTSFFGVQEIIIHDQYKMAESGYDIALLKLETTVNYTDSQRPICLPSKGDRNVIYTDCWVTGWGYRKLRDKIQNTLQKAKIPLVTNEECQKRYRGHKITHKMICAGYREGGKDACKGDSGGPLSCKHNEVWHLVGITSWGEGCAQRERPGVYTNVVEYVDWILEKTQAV
T1 sequence (P03951 19-387 partner limits assumed): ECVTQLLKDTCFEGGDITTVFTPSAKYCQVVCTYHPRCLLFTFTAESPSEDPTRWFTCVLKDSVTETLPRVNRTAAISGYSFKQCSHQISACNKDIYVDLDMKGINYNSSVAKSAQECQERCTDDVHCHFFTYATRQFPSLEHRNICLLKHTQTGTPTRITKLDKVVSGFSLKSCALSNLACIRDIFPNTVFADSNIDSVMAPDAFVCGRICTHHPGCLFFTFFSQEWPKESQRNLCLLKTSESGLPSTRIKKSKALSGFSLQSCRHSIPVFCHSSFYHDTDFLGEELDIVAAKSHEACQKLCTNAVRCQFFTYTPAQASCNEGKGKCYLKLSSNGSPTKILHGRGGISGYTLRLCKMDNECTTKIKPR
Chain of plasmin (P00747 581-810 limits assumed): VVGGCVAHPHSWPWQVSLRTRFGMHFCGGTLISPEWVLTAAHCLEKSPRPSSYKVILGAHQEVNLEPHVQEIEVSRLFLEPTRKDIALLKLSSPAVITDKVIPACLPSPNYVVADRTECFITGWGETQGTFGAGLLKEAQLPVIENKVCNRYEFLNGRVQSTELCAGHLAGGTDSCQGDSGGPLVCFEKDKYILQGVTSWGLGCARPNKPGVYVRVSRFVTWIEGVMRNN
Chain of plasmin (P00747 97-580 partner limits assumed): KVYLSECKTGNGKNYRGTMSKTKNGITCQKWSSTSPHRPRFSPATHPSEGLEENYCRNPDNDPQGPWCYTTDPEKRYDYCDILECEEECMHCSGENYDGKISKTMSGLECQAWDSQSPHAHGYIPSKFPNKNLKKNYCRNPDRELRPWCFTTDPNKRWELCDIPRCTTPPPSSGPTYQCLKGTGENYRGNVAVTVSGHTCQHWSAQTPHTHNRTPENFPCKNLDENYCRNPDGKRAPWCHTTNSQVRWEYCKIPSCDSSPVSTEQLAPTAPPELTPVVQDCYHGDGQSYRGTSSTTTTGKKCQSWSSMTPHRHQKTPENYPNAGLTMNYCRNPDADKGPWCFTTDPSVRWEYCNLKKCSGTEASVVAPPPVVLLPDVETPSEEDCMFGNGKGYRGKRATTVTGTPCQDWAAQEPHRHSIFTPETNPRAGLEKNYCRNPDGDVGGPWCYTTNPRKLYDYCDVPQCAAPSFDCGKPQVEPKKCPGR
T4 sequence (P04070 212-461 limits assumed): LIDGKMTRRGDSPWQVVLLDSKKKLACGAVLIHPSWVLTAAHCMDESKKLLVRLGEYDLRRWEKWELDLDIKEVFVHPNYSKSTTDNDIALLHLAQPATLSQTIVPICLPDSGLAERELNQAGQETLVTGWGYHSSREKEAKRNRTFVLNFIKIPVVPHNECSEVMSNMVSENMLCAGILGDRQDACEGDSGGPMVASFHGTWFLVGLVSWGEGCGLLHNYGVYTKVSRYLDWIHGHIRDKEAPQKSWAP
T4 sequence (P04070 43-197 partner limits assumed): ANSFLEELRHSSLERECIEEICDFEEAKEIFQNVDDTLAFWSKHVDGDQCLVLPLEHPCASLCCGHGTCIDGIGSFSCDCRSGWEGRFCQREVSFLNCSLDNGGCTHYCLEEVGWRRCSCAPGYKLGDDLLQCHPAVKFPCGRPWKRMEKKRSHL

- Ki [1]: 0.00045 µM
- IC50 (human Factor XIa; [4]): 12 µM
- Calculated % Selectivity XIa (human Factor XIa; [5]): 0.12%
- IC50 (human Factor Xa; [4]): > 25 µM
- Calculated % Selectivity Xa (human Factor Xa; [5]): < 0.06%
- IC50 (bovine thrombin; [4]): 17 µM
- Calculated % Selectivity Thrombin (bovine thrombin; [5]): 0.08%
- IC50 Protein C [2, 4]: Inact.
- Calculated % Selectivity Protein C [2, 5]: 0%
- IC50 (plasmin; [4]): 1.4 µM
- Calculated % Selectivity Plasmin (plasmin; [5]): 1%
Structure (SMILES): CC(C)(C)OC(=O)N[C@@H](CC(=O)O)C(=O)N1CCC[C@H]1C(=O)N[C@H](C=O)CCCNC(=N)N [Compound 9, N-t-butyloxycarbonyl-L-Asp-L-Pro-L-argininal] (Boc-Asp-Pro-Arg-aldehyde)
- Amylase Activity, Mean ± S.D [3]: 40.8 ± 5.2 U/ml
